Literature values in patent publication US20220409609A1, “INJECTABLE FORMULATION OF HYDROXYCHLOROQUINE” (Luckwel Pharmaceuticals Inc., priority 2021, published 2022).
Where a name gives a salt, the structure may show the parent alone.

Columns and labels:
[1] = water at 25° C.

Q: What does the source list for `CCN(CCO)CCCC(C)Nc1ccnc2cc(Cl)ccc12` (racemic) [Hydroxychloroquine sulfate, 2-[[4-[(7-Chloro-4-quinolyl)amino]pentyl]ethylamino] ethanol sulfate (1:1)]?
A: time at which hydroxychloroquine concentrations peak after dosing: 3 to 4 h; solubility in water [1]: freely soluble
